Test results taken from patent publication US11458123B2 (Arvinas, Inc., priority 2016, dated 2022).

System: tau protein
Assay: Tau protein in vitro degradation assay (Western blot, Tau-13 antibody)
Assay type: cell-based, human
Settings: SK-N-SH cells; 72 hours of incubation; tested at 300 nM, 100 nM, 33 nM and 11 nM; Western blot, Tau-13 antibody
Summary of the method: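 Tau degradation read by Tau-13 Western blot (detects all human tau forms) of SDS-PAGE-resolved lysates from SK-N-SH cells. Cells were plated at least 18 h before 72 h exposure to PROTACs at either 1000/300/100 nM or 300/100/33/11 nM.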

Compound	Degradation activity (tau protein remaining; highest amount of degradation observed at any dosage)	Degradation activity* (highest amount of degradation observed at any dosage; tau protein remaining)
Cn1c2ccncc2c2ccc(-c3ccc(OC4CC5(C4)CN(C(=O)COCCCOC4CN(c6ccc7c(c6)C(=O)N(C6CCC(=O)NC6=O)C7=O)C4)C5)nc3)cc21 (centres unmarked) [Compound 193, 2-(2,6-dioxopiperidin-3-yl)-5-(3-(3-(2-(6-((5-(5-methyl-5H-pyrido[4,3-b]indol-7-yl)pyridin-2-yl)oxy)-2-azaspiro[3.3]heptan-2-yl)-2-oxoethoxy)propoxy)azetidin-1-yl)isoindoline-1,3-dione]	B (≤80% and >50% tau protein remaining after 72 hours of incubation with the test compound)	–
Cn1c2ccncc2c2ccc(-c3ccc(O[C@H]4C[C@H](Oc5ccc(C#CCCCCOc6ccc7c(c6)C(=O)N(C6CCC(=O)NC6=O)C7=O)cn5)C4)nc3)cc21 (some centres unmarked) [Compound 102, 2-(2,6-dioxopiperidin-3-yl)-5-((6-(6-((1r,3r)-3-((5-(5-methyl-5H-pyrido[4,3-b]indol-7-yl)pyridin-2-yl)oxy)cyclobutoxy)pyridin-3-yl)hex-5-yn-1-yl)oxy)isoindoline-1,3-dione]	–	C (>80% tau protein remaining after 72 hours of incubation with the test compound)
Cn1c2ccncc2c2ccc(-c3ccc(O[C@H]4C[C@H](OCCCCCOC(CC5CN(c6ccc7c(c6)C(=O)N(C6CCC(=O)NC6=O)C7=O)C5)C(F)(F)F)C4)nc3)cc21 (some centres unmarked) [Compound 153, 2-(2,6-dioxopiperidin-3-yl)-5-(3-(3,3,3-trifluoro-2-((5-((1r,3r)-3-((5-(5-methyl-5H-pyrido[4,3-b]indol-7-yl)pyridin-2-yl)oxy)cyclobutoxy)pentyl)oxy)propyl)azetidin-1-yl)isoindoline-1,3-dione]	–	B (≤80% and >50% tau protein remaining after 72 hours of incubation with the test compound)
O=C1CCC(N2C(=O)c3ccc(N4CCN(CCCO[C@H]5C[C@H](Oc6ccc(-c7ccc8c(c7)[nH]c7ccncc78)cn6)C5)CC4)cc3C2=O)C(=O)N1 (some centres unmarked) [Compound 60, 5-(4-(3-((1r,3r)-3-((5-(5H-pyrido[4,3-b]indol-7-yl)pyridin-2-yl)oxy)cyclobutoxy)propyl)piperazin-1-yl)-2-(2,6-dioxopiperidin-3-yl)isoindoline-1,3-dione]	–	C (>80% tau protein remaining after 72 hours of incubation with the test compound)
Cn1c2ccncc2c2c(F)c(F)c(-c3ccc(O[C@H]4C[C@H](OCCCOCCCOC5CN(c6ccc7c(c6)C(=O)N(C6CCC(=O)NC6=O)C7=O)C5)C4)nc3)cc21 (some centres unmarked) [Compound 176, 5-(3-(3-(3-((1r,3r)-3-((5-(8,9-difluoro-5-methyl-5H-pyrido[4,3-b]indol-7-yl)pyridin-2-yl)oxy)cyclobutoxy)propoxy)propoxy)azetidin-1-yl)-2-(2,6-dioxopiperidin-3-yl)isoindoline-1,3-dione]	C (>80% tau protein remaining after 72 hours of incubation with the test compound)	–
Cn1c2ccncc2c2ccc(-c3ccc(N4CCC(CN5CCN(c6ccc7c(c6)CN(C6CCC(=O)NC6=O)C7=O)CC5)CC4)nc3)cc21 (centres unmarked) [Compound 127, 3-(5-(4-((1-(5-(5-methyl-5H-pyrido[4,3-b]indol-7-yl)pyridin-2-yl)piperidin-4-yl)methyl)piperazin-1-yl)-1-oxoisoindolin-2-yl)piperidine-2,6-dione]	–	C (>80% tau protein remaining after 72 hours of incubation with the test compound)
Cn1c2ccncc2c2ccc(-c3ccc(O[C@H]4C[C@H](OCCOCCOCCC5CN(c6ccc7c(c6)C(=O)N(C6CCC(=O)NC6=O)C7=O)C5)C4)nc3)cc21 (some centres unmarked) [Compound 190, 2-(2,6-dioxopiperidin-3-yl)-5-(3-(2-(2-(2-((1r,3r)-3-((5-(5-methyl-5H-pyrido[4,3-b]indol-7-yl)pyridin-2-yl)oxy)cyclobutoxy)ethoxy)ethoxy)ethyl)azetidin-1-yl)isoindoline-1,3-dione]	C (>80% tau protein remaining after 72 hours of incubation with the test compound)	–
O=C1CCC(N2C(=O)c3ccc(OCCCCC#Cc4ccc(O[C@H]5C[C@H](Oc6ccc(-c7ccc8c(c7)[nH]c7ccncc78)cn6)C5)cn4)cc3C2=O)C(=O)N1 (some centres unmarked) [Compound 172, 5-((6-(5-((1r,3r)-3-((5-(5H-pyrido[4,3-b]indol-7-yl)pyridin-2-yl)oxy)cyclobutoxy)pyridin-2-yl)hex-5-yn-1-yl)oxy)-2-(2,6-dioxopiperidin-3-yl)isoindoline-1,3-dione]	C (>80% tau protein remaining after 72 hours of incubation with the test compound)	–
Cn1c2ccncc2c2ccc(-c3cnc(CCCN4CCN(CCCCCOc5ccc6c(c5)C(=O)N(C5CCC(=O)NC5=O)C6=O)CC4)c(C(F)(F)F)c3)cc21 (centres unmarked) [Compound 63, 2-(2,6-dioxopiperidin-3-yl)-5-((5-(4-(3-(5-(5-methyl-5H-pyrido[4,3-b]indol-7-yl)-3-(trifluoromethyl)pyridin-2-yl)propyl)piperazin-1-yl)pentyl)oxy)isoindoline-1,3-dione]	–	C (>80% tau protein remaining after 72 hours of incubation with the test compound)
Cn1c2ccncc2c2ccc(-c3ccc(O[C@H]4C[C@@H](Oc5ccc(CCCCCCOc6ccc7c(c6)C(=O)N(C6CCC(=O)NC6=O)C7=O)cn5)C4)nc3)cc21 (some centres unmarked) [Compound 145, 2-(2,6-dioxopiperidin-3-yl)-5-(6-(6-((1s,3s)-3-(5-(5-methyl-5H-pyrido[4,3-b]indol-7-yl)pyridin-2-yloxy)cyclobutoxy)pyridin-3-yl)hexyloxy)isoindoline-1,3-dione]	–	C (>80% tau protein remaining after 72 hours of incubation with the test compound)
Cn1c2ccncc2c2ccc(-c3ccc(O[C@H]4C[C@H](Oc5ccc(C#CCN6CC(Oc7ccc8c(c7)C(=O)N(C7CCC(=O)NC7=O)C8=O)C6)nc5)C4)nc3)cc21 (some centres unmarked) [Compound 152, 2-(2,6-dioxopiperidin-3-yl)-5-((1-(3-(5-((1r,3r)-3-((5-(5-methyl-5H-pyrido[4,3-b]indol-7-yl)pyridin-2-yl)oxy)cyclobutoxy)pyridin-2-yl)prop-2-yn-1-yl)azetidin-3-yl)oxy)isoindoline-1,3-dione]	–	A (≤50% tau protein remaining after 72 hours of incubation with the test compound)
Cn1c2ccncc2c2ccc(-c3ccc(O[C@H]4C[C@H](OCCOCCCOCC5CN(c6ccc7c(c6)C(=O)N(C6CCC(=O)NC6=O)C7=O)C5)C4)nc3)cc21 (some centres unmarked) [Compound 191, 2-(2,6-dioxopiperidin-3-yl)-5-(3-((3-(2-((1r,3r)-3-((5-(5-methyl-5H-pyrido[4,3-b]indol-7-yl)pyridin-2-yl)oxy)cyclobutoxy)ethoxy)propoxy)methyl)azetidin-1-yl)isoindoline-1,3-dione]	A (≤50% tau protein remaining after 72 hours of incubation with the test compound)	–
O=C1CCC(N2C(=O)c3ccc(OCCCCCOC4CCN(C(=O)[C@H]5C[C@H](Oc6ccc(-c7ccc8c(c7)[nH]c7ccncc78)cn6)C5)CC4)cc3C2=O)C(=O)N1 (some centres unmarked) [Compound 165, 5-((5-((1-((1r,3r)-3-((5-(5H-pyrido[4,3-b]indol-7-yl)pyridin-2-yl)oxy)cyclobutane-1-carbonyl)piperidin-4-yl)oxy)pentyl)oxy)-2-(2,6-dioxopiperidin-3-yl)isoindoline-1,3-dione]	–	C (>80% tau protein remaining after 72 hours of incubation with the test compound)
Cn1c2ccncc2c2ccc(-c3ccc(O[C@H]4C[C@H](Oc5ccc(CCCCCCOc6ccc7c(c6)C(=O)N(C6CCC(=O)NC6=O)C7=O)cn5)C4)nc3)cc21 (some centres unmarked) [Compound 110, 2-(2,6-dioxopiperidin-3-yl)-5-((6-(6-((1r,3r)-3-((5-(5-methyl-5H-pyrido[4,3-b]indol-7-yl)pyridin-2-yl)oxy)cyclobutoxy)pyridin-3-yl)hexyl)oxy)isoindoline-1,3-dione]	–	C (>80% tau protein remaining after 72 hours of incubation with the test compound)
Cc1ncsc1-c1ccc(CNC(=O)[C@@H]2C[C@@H](O)CN2C(=O)[C@H](C(C)C)N2Cc3ccccc3C2=O)c(OCCOCCOCCOCCOCCOc2ccc(-c3ccc4c(c3)[nH]c3ccncc34)cn2)c1 [Compound 201, (2S,4R)—N-(2-((14-((5-(5H-pyrido[4,3-b]indol-7-yl)pyridin-2-yl)oxy)-3,6,9,12-tetraoxatetradecyl)oxy)-4-(4-methylthiazol-5-yl)benzyl)-4-hydroxy-1-((S)-3-methyl-2-(1-oxoisoindolin-2-yl)butanoyl)pyrrolidine-2-carboxamide]	C (>80% tau protein remaining after 72 hours of incubation with the test compound)	–

Same assay, conditions: SK-N-SH cells; 72 hours of incubation; tested at 1000 nM, 300 nM and 100 nM

Compound	Activity* (highest amount of degradation observed at any dosage, as tau protein remaining)
O=C1CCC(N2Cc3c(OCCOCCOCCOCCOCCOc4ccc(-c5ccc6c(c5)[nH]c5ccncc56)cn4)cccc3C2=O)C(=O)N1 (centres unmarked) [Compound 50, 3-(4-(14-(5-(5H-pyrido[4,3-b]indol-7-yl)pyridin-2-yloxy)-3,6,9,12-tetraoxatetradecyloxy)-1-oxoisoindolin-2-yl)piperidine-2,6-dione]	A (≤50% tau protein remaining after 72 hours of incubation with the test compound)
Cc1ncsc1-c1ccc(CNC(=O)[C@@H]2C[C@@H](O)CN2C(=O)[C@@H](NC(=O)COCCOCCOCCOCCOc2ccc(-c3ccc4c(c3)[nH]c3ccncc34)cn2)C(C)(C)C)cc1 [Compound 6, (2S,4R)-1-((S)-17-(5-(5H-pyrido[4,3-b]indol-7-yl)pyridin-2-yloxy)-2-tert-butyl-4-oxo-6,9,12,15-tetraoxa-3-azaheptadecane)-4-hydroxy-N-(4-(4-methylthiazol-5-yl)benzyl)pyrrolidine-2-carboxamide]	C (>80% tau protein remaining after 72 hours of incubation with the test compound)
